Experimental data: patent US4574117A, “Stabilization of phenylalanine ammonia-lyase in a bioreactor using reducing agents” (Genex Corporation, priority 1984, dated 1986)
Each block holds one compound with its values, some of them ahead of it.

Tests used:
[1] = target: T1, phenylalanine ammonia-lyase (PAL) (Rhodotorula mucilaginosa, UniProt P10248); experiment: Example 1: L-phenylalanine bioreaction with PAL-containing cells, 2-mercaptoethanol at 100, 500 and 1000 mg/liter; type: biochemical, Rhodotorula rubra; conditions: after 15 hours, 35° C., pH 10.5; for L-Phenylalanine Produced: ammonium sulfate
T1 construct: endogenous in cells; host or cells: Rhodotorula rubra cells (aerobic fermentation, whole cells harvested by centrifugation)
T1 sequence (P10248 1-713): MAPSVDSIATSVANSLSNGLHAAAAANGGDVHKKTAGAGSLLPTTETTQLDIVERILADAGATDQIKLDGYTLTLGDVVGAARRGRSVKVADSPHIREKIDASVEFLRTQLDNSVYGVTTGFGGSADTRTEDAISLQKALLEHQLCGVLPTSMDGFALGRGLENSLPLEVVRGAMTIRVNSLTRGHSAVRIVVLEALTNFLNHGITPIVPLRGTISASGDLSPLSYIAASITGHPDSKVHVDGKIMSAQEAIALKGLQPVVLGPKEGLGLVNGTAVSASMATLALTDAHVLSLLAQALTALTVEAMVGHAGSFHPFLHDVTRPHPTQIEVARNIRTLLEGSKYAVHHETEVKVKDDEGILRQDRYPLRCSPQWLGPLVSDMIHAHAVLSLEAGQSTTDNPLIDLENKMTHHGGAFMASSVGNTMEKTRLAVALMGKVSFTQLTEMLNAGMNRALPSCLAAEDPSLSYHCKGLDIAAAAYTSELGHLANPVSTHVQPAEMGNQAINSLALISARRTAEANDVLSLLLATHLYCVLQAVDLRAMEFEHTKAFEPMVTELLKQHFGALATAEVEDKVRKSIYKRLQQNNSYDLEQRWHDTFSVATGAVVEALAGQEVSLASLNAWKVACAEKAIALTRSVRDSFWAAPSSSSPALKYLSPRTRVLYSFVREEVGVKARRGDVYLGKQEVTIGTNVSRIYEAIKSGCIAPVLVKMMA
Text: Microbial cells containing a high level of activity of phenylalanine ammonia-lyase (PAL) were produced by aerobic fermentation. A 14 liter fermentor containing 10 liters of nutrient medium was inoculated with a seed culture of Rhodotorula rubra. The nutrient medium consisted of: soy peptone 2.7%; casein hydrolysate (Sheffield NZ-Amine) 1.35%; and corn steep liquor 0.18%. The fermentor contents were aerated and agitated, and the pH was maintained at 6.0 by periodic additions of ammonia water or sulfuric acid. During the fermentation, the PAL activity of the cells was monitored, and when the PAL activity reached a maximum (approximately 22 hours after inoculation), the fermentation was stopped by shutting off the aeration and agitation. The vessel was de-aerated by sparging with nitrogen gas. The microbial cells were separated from the fermentation broth by centrifugation, and stored at 4° C. Four 14 liter vessels were each filled with 13 liters of a substrate solution containing: ammonia, 4 mole/liter; ammonium sulfate, 100 gram/liter; and trans-cinnamic acid, 10 gram/liter. The pH of the solution was 10.5, and the temperature was maintained at 35° C. The vessels were deaerated by sparging with nitrogen gas, and 2-mercaptoethanol was added to three of the vessels in amounts of 100, 500, and 1000 mg/liter. PAL-containing microbial cells were then added to all four vessels in the amount of 1.35 gram (dry basis) per liter. The vessels were agitated for one minute every three hours. Supplemental trans-cinnamic acid was added to the vessels in the amount of 2.5 gram/liter at 3, 6, 9, and 12 hours after the addition of cells. After 15 hours, the concentration of L-phenylalanine in the reaction mixture was measured, and the PAL activity of the cells was determined. The results, which are shown in Table I, indicate that the stability of PAL was enhanced by the reducing agent, with the result that a greater quantity of L-phenylanine was produced. The optimum concentration for 2-mercaptoethanol is between 100 and 1000 mg/liter.

[2] = target: T1, phenylalanine ammonia-lyase (PAL); experiment: Example 2: bioreaction in ammonium carbonate or ammonium sulfate substrate solution with 2-mercaptoethanol; type: biochemical, Rhodotorula rubra; conditions: 600 mg/l 2-mercaptoethanol, after 15 hours
Description: Four 14 liter vessels were each filled with 13 liters of substrate solution. In two of the vessels, the substrate solution contained: ammonia, 5 mole/liter; ammonium carbonate, 120 gram/liter; and trans-cinnamic acid, 10 gram/liter. The other two vessels contained a substrate solution composed of: ammonia, 4.2 mole/liter; ammonium sulfate, 75 gram/liter; and trans-cinnamic acid, 10 gram/liter. The pH in all four vessels was 10.5, and the temperature was maintained at 35° C. All four vessels were de-aerated by sparging with nitrogen gas. Finally, one vessel of each pair had 600 mg/liter of 2-mercaptoethanol added. The reaction was started by adding PAL-containing microbial cells to each of the four vessels in the amount of 1.7 gram (dry basis) per liter. (The microbial cells were produced by the method of Example 1.) The vessels were agitated for one minute every three hours. Supplemental trans-cinnamic acid was added to all four vessels in the amount of 2.5 gram/liter at 3, 6, 9, and 12 hours after the addition of cells. After 15 hours, the concentration of L-phenylalanine in the reaction mixtures was measured, and the PAL activity of the cells was determined.

[3] = target: T1, phenylalanine ammonia-lyase (PAL); experiment: Example 3: optimum concentration of 2-mercaptoethanol, five vessels; type: biochemical, Rhodotorula rubra; conditions: for L-Phenylalanine Produced / PAL Activity (% of Activity): after 24 hours
Description: The optimum concentration of 2-mercaptoethanol was determined by carrying out reactions in five vessels with varying concentrations of 2-mercaptoethanol. The procedures used were the same as those described in Examples 1 and 2, with the following modifications. The nutrient medium for the fermentation was composed of: yeast extract (Amber Laboratories, Amberex 1003) 1.35%; corn steep liquor 0.18%; and L-phenylalanine 2.7%. The substrate solution for L-phenylalanine production contained: ammonia 5.1 mole/liter; ammonium sulfate 120 gram/liter; and cinnamic acid 10 gram/liter, with 2.5 gram/liter added at 3, 6, 9, and 12 hours after the addition of cells. The quantity of cells added to each of the vessels was 1.6 gram (dry basis) per liter. After 24 hours, the L-phenylalanine concentration in the reaction mixture was measured, and the PAL activity of the cells was determined.

[4] = target: T1, phenylalanine ammonia-lyase (PAL); experiment: Example 4: 300 gallon reactor bioreaction with 2-mercaptoethanol; type: biochemical, Rhodotorula rubra; conditions: 404 ml 2-mercaptoethanol in 900 liters substrate solution, after 53.5 hours, 30° C.
Description: PAL-containing microbial cells were cultivated in three 250-liter fermentors, each containing 163 liters of nutrient medium. The medium was composed of: yeast extract (Amber Laboratories, Amberex 1003) 1.38%; beet molasses 4%; diammonium phosphate 0.18%; and L-phenylalanine 0.92%. The fermentor was inoculated with a shake flask culture of Rhodotorula rubra. The fermentation was carried out at 30° C. with aeration and agitation. The pH was maintained at 6.0 by periodic additions of ammonia water or sulfuric acid. During the fermentation, the PAL activity of the microbial cells was monitored, and when the PAL activity reached a maximum, at 28-30 hours after inoculation, the fermentations were stopped by shutting off the aeration and agitation. The vessels were de-aerated by sparging with nitrogen gas. Microbial cells were harvested by means of a Westfalia disc-bowl centrifuge. The combined yield of cells from all three fermentators was 5.04 kg (dry basis). Substrate solution for L-phenylalanine production was prepared as follows. […] The trans-cinnamic acid concentration in the reaction mixture was monitored at intervals of approximately two hours, and supplemental trans-cinnamic acid was added whenever necessary, to maintain a concentration of between 10 and 18 gram/liter. […]

PAL = conditions: cited from earlier work

PAL Activty (% of Initial) ([1]; 100 mg/l 2-mercaptoethanol): 31.2 % of Initial | L-Phenylalanine Produced ([1]; 100 mg/l 2-mercaptoethanol): 7.34 gm/l | PAL Activty (% of Initial) ([1]; 500 mg/l 2-mercaptoethanol): 39.4 % of Initial | L-Phenylalanine Produced ([1]; 500 mg/l 2-mercaptoethanol): 9.26 gm/l | PAL Activty (% of Initial) ([1]; 1,000 mg/l 2-mercaptoethanol): 35.9 % of Initial | L-Phenylalanine Produced ([1]; 1,000 mg/l 2-mercaptoethanol): 8.54 gm/l | L-Phenylalanine Produced ([2]; ammonium carbonate): 12.9 gm/l | PAL Activity (% of Initial) ([2]; ammonium carbonate): 46.6 % of Initial | L-Phenylalanine Produced ([2]; ammonium sulfate): 10.8 gm/l | PAL Activity (% of Initial) ([2]; ammonium sulfate): 38.7 % of Initial | L-Phenylalanine Produced ([3]; 300 mg/l 2-mercaptoethanol): 12.6 gram/l | PAL Activity (% of Activity) ([3]; 300 mg/l 2-mercaptoethanol): 27.5 % of Activity | L-Phenylalanine Produced ([3]; 400 mg/l 2-mercaptoethanol): 14.6 gram/l | PAL Activity (% of Activity) ([3]; 400 mg/l 2-mercaptoethanol): 32.4 % of Activity | L-Phenylalanine Produced ([3]; 500 mg/l 2-mercaptoethanol): 15.4 gram/l | PAL Activity (% of Activity) ([3]; 500 mg/l 2-mercaptoethanol): 34.2 % of Activity | L-Phenylalanine Produced ([3]; 600 mg/l 2-mercaptoethanol): 14.8 gram/l | PAL Activity (% of Activity) ([3]; 600 mg/l 2-mercaptoethanol): 32.7 % of Activity | L-Phenylalanine Produced ([3]; 800 mg/l 2-mercaptoethanol): 14.6 gram/l | PAL Activity (% of Activity) ([3]; 800 mg/l 2-mercaptoethanol): 31.7 % of Activity | optimum concentration of 2-mercaptoethanol ([3]; Example 3 conditions): approximately 500 mg/liter | PAL activity of the cells in the reactor, of the initial activity [4]: 27% | L-phenylalanine in the reaction mixture ([4]; ammonium carbonate): 33.3 gram/liter
SMILES: OCCS [2-mercaptoethanol]

SMILES: CC[C@H](C)[C@H](N)C(=O)O [L-isoleucine, reference compound]
effect on PAL stability (PAL; extended the useful period of activity of the enzyme): stabilizing effect

SMILES: O=C(O)/C=C/c1ccccc1 [t-cinnamic acid]
rate of conversion of L-phenylalanine relative to the maximum rate (PAL; t-cinnamic acid 150 mM (substrate inhibition)): one-half
